Data reported in patent US20050255493A1, “Molecular targeting of the IGF-1 receptor” (priority 2002, published 2005).
“Also recorded” adds a separate entry of the source.

Legend:
[1] = tested on: IGF1R; experiment: IGF1R levels by immunoblotting in human tumour cell lines transfected with RNAi duplexes; assay type: cell-based; conditions: for IGF1R level as % of levels in cells transfected with inverted control duplex: 10 nM duplex, 48 hr
Description: (§1) The human and murine cell lines used in this study were cultured in RPMI 1640 plus 10% FCS at 37° C. in a humidified atmosphere of 5% CO2. The cultures were negative when tested for Mycoplasma infection. Cultures were passaged the day before transfection to achieve 30-50% confluence the following day. Initial transfections of ASOs used 1-2.5 μg/ml Cytofectin (Glen Research, Sterling, Va.), according to the manufacturer's instructions. Latterly Oligofectamine (Life Sciences) has been used for all ASO and RNAi transfections. The method was as described (see manufacturer's instructions and www.dharmacon.com) with minor modifications. For transfection of monolayers seeded in 6 well plates, 5 μl phosphorothioate oligonucleotide or RNA duplex at 100× final concentration were mixed with 2501 serum-free Optimem (Gibco-BRL). In a separate tube 2 μl Oligofectamine was mixed with 68 μl Optimem. After 10 min incubation at room temperature the contents of the two tubes were mixed and incubated for a further 25 min at room temperature. Monolayers were washed with 1-2 ml Optimem. To the cells were added 175 μl Optimem followed by the 325 μl complexes. Volumes were scaled up by factors of 2.22 or 6.05 for transfection in 60 mm or 100 mm dishes respectively. Cultures were incubated at 37° C. for 4 hr, and then 50 μl FCS and 3.5 ml RPMI plus 5% FCS were added to each well. After 48 hr incubation effects on IGF1R and IR expression were determined by immunoblotting. Some transfected cultures were serum-starved overnight, divided into two aliquots and treated with 10 nM Long R3-IGF-I (GroPep, Adelaide) or diluent for 30 min at 37° C. prior to lysis.
IGF1R expression was assessed by immunoblotting as previously described (Macaulay et al 2001). After washing in ice-cold PBS, cells were lysed in 50 mM Hepes pH 7.5, 100 mM NaCl, 10 mM EDTA, 1% Triton-X-100, 4 mM sodium pyrophosphate, 2 mM sodium orthovanadate, 10 mM sodium fluoride, 1 mM PMSF, 2 μg/ml each leupeptin and aprotinin. Lysates were centrifuged for 15 minutes at 14,000 g, the protein concentration of supernatants was measured using BCA assay reagent (Pierce), and equivalent amounts of protein were separated on 7.5% SDS-PAGE gels and transferred to nitrocellulose. Target protein levels were assessed using antibodies to the β-subunit of the IGF1R or IR (Santa Cruz), phospho-Ser 473 Akt or total Akt (Cell Signalling, New England Biolabs) or β-tubulin (Sigma). Activated IGF1R was detected by immunoprecipitation for phosphotyrosine (P-Tyr-100, Cell Signaling Technology). Primary antibodies were detected with HRP-conjugated secondary antibodies (Dako), and ECL Plus (Amersham Pharmacia). […]
Tumour cells were transfected with 10 nM duplexes and IGF1R levels were measured after 48 hr. After correction for loading differences IGF1R levels in cells transfected with RNAi were expressed as % of levels in cells transfected with equivalent inverted control duplex.

[2] = tested on: IGF1R; experiment: IGF1R levels by immunoblotting in B16 murine melanoma cells transfected with RNAi duplexes; assay type: cell-based; conditions: 10 nM duplex, 48 hr
Description: The human and murine cell lines used in this study were cultured in RPMI 1640 plus 10% FCS at 37° C. in a humidified atmosphere of 5% CO2. The cultures were negative when tested for Mycoplasma infection. Cultures were passaged the day before transfection to achieve 30-50% confluence the following day. Initial transfections of ASOs used 1-2.5 μg/ml Cytofectin (Glen Research, Sterling, Va.), according to the manufacturer's instructions. Latterly Oligofectamine (Life Sciences) has been used for all ASO and RNAi transfections. The method was as described (see manufacturer's instructions and www.dharmacon.com) with minor modifications. […] After 48 hr incubation effects on IGF1R and IR expression were determined by immunoblotting. […]
IGF1R expression was assessed by immunoblotting as previously described (Macaulay et al 2001). […] Lysates were centrifuged for 15 minutes at 14,000 g, the protein concentration of supernatants was measured using BCA assay reagent (Pierce), and equivalent amounts of protein were separated on 7.5% SDS-PAGE gels and transferred to nitrocellulose. Target protein levels were assessed using antibodies to the β-subunit of the IGF1R or IR (Santa Cruz), phospho-Ser 473 Akt or total Akt (Cell Signalling, New England Biolabs) or β-tubulin (Sigma). Activated IGF1R was detected by immunoprecipitation for phosphotyrosine (P-Tyr-100, Cell Signaling Technology). […]

[3] = tested on: B16 melanoma cells; experiment: Growth in vivo of B16 melanoma cells transfected with RNA duplexes; conditions: B16 cells transfected with 200 nM duplex on three consecutive days, flanks of C57BL mice
Description: FIG. 8 illustrates growth in vivo in C57BL mice of B16 melanoma cells transfected with RNA duplexes. B16 melanoma cells were transfected with 200 nM duplexes (RNA22 is R2, Inv22 is Inv2) or oligofectamine alone (OF) for three consecutive days. On the 4th day cells were injected into the flanks of C57BL mice, using 2.5×10^5 cells/mouse, using groups of 5 mice. Tumours were measured in 2 dimensions every 2-3 days. Tumour volumes were calculated as n(a×b^2)/6 where a is the larger and b the smaller dimension.
B16 cells were transfected with 200 nM RNA duplexes (RNA22=R2, 22Inv=Inv2) or oligofectamine alone (OF) for three consecutive days. On the 4th day cells were injected into the flanks of C57BL mice, using 2.5×10^5 cells/mouse, using groups of 5 mice. Tumours were measured in 2 dimensions every 2-3 days. Tumour volumes were calculated as n(a×b^2)/6 where a is the larger and b the smaller dimension.

[4] = tested on: IGF-I signaling to Akt; experiment: IGF signalling: phosphorylation of IGF1R β-subunit and Akt after IGF-I in transfected MDA-MB-231 cells; assay type: cell-based, human; conditions: MDA-MB-231, 100 nM duplexes, 50 nM IGF-1 for 30 min
Description: (§2) IGF1R expression was assessed by immunoblotting as previously described (Macaulay et al 2001). After washing in ice-cold PBS, cells were lysed in 50 mM Hepes pH 7.5, 100 mM NaCl, 10 mM EDTA, 1% Triton-X-100, 4 mM sodium pyrophosphate, 2 mM sodium orthovanadate, 10 mM sodium fluoride, 1 mM PMSF, 2 μg/ml each leupeptin and aprotinin. Lysates were centrifuged for 15 minutes at 14,000 g, the protein concentration of supernatants was measured using BCA assay reagent (Pierce), and equivalent amounts of protein were separated on 7.5% SDS-PAGE gels and transferred to nitrocellulose. Target protein levels were assessed using antibodies to the β-subunit of the IGF1R or IR (Santa Cruz), phospho-Ser 473 Akt or total Akt (Cell Signalling, New England Biolabs) or β-tubulin (Sigma). Activated IGF1R was detected by immunoprecipitation for phosphotyrosine (P-Tyr-100, Cell Signaling Technology). Primary antibodies were detected with HRP-conjugated secondary antibodies (Dako), and ECL Plus (Amersham Pharmacia).
MDA-MB-231 cells transfected with 100 nM RNA duplexes were serum-starved overnight and treated with 50 nM IGF-1 or diluent for 30 min. The cells were lysed and lysates were analysed by immunoblotting for IGF1R, phospho-Ser473-Akt and total Akt, and by phosphotyrosine immunoprecipitation and IGF1R immunoblotting to detect phosphorylated IGF1R β-subunit (see FIG. 7).

[5] = tested on: IGF1R; experiment: IGF1R level by immunoblotting in transfected MDA-231 cells; assay type: cell-based, human
Description: as §1, §2
The ASOs and RNAi duplexes were transfected into MDA-231 cells (human ER negative breast cancer) using Cytofectin or Oligofectamine, as described above. After 48 hr the cells were lysed, and IGF1R and IR levels were measured by immunoblotting. The intensity of the autoradiographic bands was quantified by densitometry, and IGF1R (or IR) levels were corrected for loading differences. The specific IGF1R or IR results are presented as % IGF1R (or IR) level of that in cells transfected with the same concentration of an appropriate control. This was a scrambled control oligonucleotide for ASOs, and an inverted RNA duplex for RNAi.

[6] = tested on: UC101 human ovarian cancer cells; experiment: Tumorigenicity of UC101 ovarian cancer cells transfected with siRNA (xenografts); assay type: in vivo, female athymic (nu/nu mice); conditions: UC101 cells transfected with 200 nM siRNA, nu/nu mice
Description: UC101 ovarian cancer cells were transfected with 200 nM siRNA, mixed with irradiated NIH-3T3 cells and inoculated into the flanks of female athymic (nu/nu mice).
Tumorigenicity testing was conducted using UC101 human ovarian cancer cells transfected with 200 nM siRNA. After 48 hr the cells were inoculated into the flanks of female athymic (nu/nu mice), using 5×10^6 tumour cells mixed with 5×10^6 irradiated NIH-3T3 cells per mouse. Tumours were measured and volumes calculated as described (Macaulay et al., Oncogene 20: 2029-40, 2001). All procedures were performed in accordance with the Home Office Scientific Procedures Act 1986, and with the approval of the Animal Ethics Committee of Cancer Research UK.

[7] = tested on: DU145 and PC3 cells; experiment: Radio- and chemosensitivity of prostate cancer cells after IGF1R gene silencing (clonogenic, change in IC50); assay type: cell-based, human; conditions: 200 nM duplex (FIG. 19)
Description: FIG. 19 illustrates that IGF1R gene silencing enhances chemosensitivity of androgen-resistant prostate cancer. PC3 cells were transfected with 200 nM TSS (red line) or scrambled sequence control duplex (green). After 48 hr the cells were disaggregated and re-seeded in 10 cm dishes (4000 cells/dish). The following day the cultures were treated with mitoxantrone at the indicated concentrations for 24 hours, after which the medium was changed and cells were allowed to survive to form colonies (>50 cells). Dotted lines mark IC501 dose required to inhibit survival to 50% untreated level.
Furthermore, IGF1R gene silencing appeared to enhance prostate cancer radio- and chemo-sensitivity (FIG. 19). The alteration in sensitivity was calculated as change in IC50, the concentration of drug/irradiation required to reduce the colony count to 50% of that in untreated cultures, as follows: [formula]

[8] = tested on: Human prostate cancer cells; experiment: Clonogenic survival of human prostate cancer cells transfected with siRNA TSS; assay type: cell-based; conditions: all three prostate cancer cell lines (DU145, PC3, LNCaP), 200 nM
Description: FIG. 18 illustrates how IGF1R gene silencing inhibits survival of prostate cancer cells. Human prostate cancer cells were transfected with 200 nM TSS or control duplex. After 48 hr the cells were disaggregated and re-seeded in 10 cm dishes (2000 cells/dish). After 1-3 weeks incubation (depending on the cell line), visible colonies were stained and counted. Bars show mean±sem of triplicate dishes. **p<0.01, ***p<0.001 for comparison of survival in cultures treated with TSS versus control duplex.

[9] = tested on: IGF1R; experiment: IGF1R Western blot in prostate cancer cells transfected with siRNA TSS; assay type: cell-based, human; conditions: for IGF1R level, % of levels in cells treated with control duplex: 48 hours after transfection
Description: Prostate cancer cells were transfected with 200 nM siRNA TSS homologous to nt 166-186 of the IGF1R gene or inverted sequence control.
as §1, §2

[10] = tested on: Human EJ28 invasive bladder carcinoma cells; experiment: Survival and mitomycin-C sensitivity of EJ28 invasive bladder carcinoma cells; assay type: cell-based; conditions: human bladder cancer cells
Description: FIG. 20 illustrates that IGF1R gene silencing inhibits survival and enhances chemosensitivity of invasive bladder cancer. Human EJ28 invasive bladder carcinoma cells were transfected with 200 nM TSS or control duplex. After 48 hr the cells were disaggregated and re-seeded. To measure survival, 2000 cells were seeded in 10 cm dishes. Survival in TSS-transfected cells was only 0.2% of that in control-treated cultures, p<0.001). For chemosensitivity testing, cells were re-seeded into 96-well plates. The following day cultures were treated with mitomycin-C at the indicated concentrations for 24 hours, after which the medium was changed. After a further 4 days, growth was measured by calorimetric assay (MTS assay).

Row | Substance | IGF1R level as % of levels in cells transfected with inverted control duplex ([1]; A549 human non-small cell lung) [%] | IGF1R level as % of levels in cells transfected with inverted control duplex ([1]; DU145 human prostate cancer) [%] | IGF1R level as % of levels in cells transfected with inverted control duplex ([1]; ME human melanoma) [%] | Inhibition of IGF1R expression on immunoblot ([1]; ME melanoma cells, 10-200 nM) | IGF1R level as % of levels in cells transfected with inverted control duplex [2] [%] | Tumour growth in vivo compared with inverted control RNA duplex [3] | IGF-I signaling to Akt / IGF-1-induced phosphorylation [4] | Inhibition of IGF1R expression on immunoblot ([5]; MDA-231 breast cancer cells, 10-200 nM) | Tumour development [6] | IGF1R downregulation ([1]; 10 nM, human ME melanoma and A549 NSCLC) | IGF1R downregulation compared between 21mer duplexes ([5]; MDA-231 cells, 0.5, 5 and 50 nm (FIG. 5)) | Change in mitoxantrone IC50 [7] [fold] | Inhibition of clonogenic survival [8] | IGF1R level, % of levels in cells treated with control duplex ([9]; DU145, 200 nM) [%] | IGF1R level, % of levels in cells treated with control duplex ([9]; LNCaP, 200 nM) [%] | IGF1R level, % of levels in cells treated with control duplex ([9]; PC3, 200 nM) [%] | Inhibition of IGF1R expression ([9]; all three prostate cancer cell lines (DU145, PC3, LNCaP)) | IGF1R gene silencing ([5]; MDA-MB-231 human breast carcinoma cells) | Clonogenic survival [10] | Sensitivity to mitomycin-C ([10]; MTS assay)
1 | R2: RNAi duplex GCCGAUGUGUGAGAAGACCTT / TTCGGCUACACACUCUUCUGG, SEQ ID NO:23 (sense GCCGAUGUGUGAGAAGACCNN; chemistry not fully specified; one strand is listed 3' to 5') | 22 ± 2 | 34 ± 13 | 53 ± 3 | almost complete inhibition of IGF1R expression | 45 ± 4 | reduced growth rate in vivo | could not detect IGF-1-induced phosphorylation of the IGF1R β-subunit or of Akt | almost complete inhibition of IGF1R expression | – | – | – | – | – | – | – | – | – | – | – | –
2 | R6: RNAi duplex CUACAUUGUGGGGAAUAAGTT / TTGAUGUAACACCCCUUAUUC, SEQ ID NO:34 (CUACAUUGUGGGGAAUAAGNN; second strand not cited, chemistry not fully specified) | 102 ± 16 | 74 ± 8 | 104 ± 5 | – | 72 ± 14 | – | not sufficient to abolish IGF-I signaling to Akt | – | rapidly growing tumours | essentially inactive | significantly less potent; also recorded: less than the effect of the mutant duplex Mut2 | – | – | – | – | – | – | – | – | –
3 | siRNA TSS: 21mer duplex homologous to nucleotides 166-186 of the IGF1R transcript, CGACUAUCAGCAGCUGAAGTT / TTGCUGAUAGUCGUCGACUUC, SEQ ID NO:37 (CGACUAUCAGCAGCUGAAGNN; second strand not cited, chemistry not fully specified) | – | – | – | – | – | – | – | – | – | – | – | −2 | significant inhibition | 18 | 17 | 22 | significant inhibition | induce IGF1R gene silencing | profound inhibition of clonogenic survival | enhancement of sensitivity to mitomycin-C
